Reference: US12152011B2, “Usnic acid derivative having TSLP secretion inhibitory ability and use thereof” (SEOUL NATIONAL UNIVERSITY HOSPITAL, priority 2018, dated 2024)

Key:
TSLP gene = test: qRT-PCR of TSLP gene expression in TNF-a stimulated HaCaT cells; assay type: cell-based, human; conditions: TNF-a stimulation, UA-CA treatment, FIG. 2
IL-1β gene = test: qRT-PCR of IL-1β gene expression in TNF-a stimulated HaCaT cells; assay type: cell-based, human; conditions: TNF-a stimulation, UA-CA treatment, FIG. 3
IL-13 gene = test: qRT-PCR of IL-13 gene expression in TNF-a stimulated HaCaT cells; assay type: cell-based, human; conditions: TNF-a stimulation, UA-CA treatment, FIG. 4
IL-25 gene = test: qRT-PCR of IL-25 gene expression in TNF-a stimulated HaCaT cells; assay type: cell-based, human; conditions: TNF-a stimulation, UA-CA treatment, FIG. 5
IL-31 gene = test: qRT-PCR of IL-31 gene expression in TNF-a stimulated HaCaT cells; assay type: cell-based, human; conditions: TNF-a stimulation, UA-CA treatment, FIG. 6
hypertrophic scar = test: Scar alleviation in rabbit ear hypertrophic scar model (biopsy, H&E histology); assay type: in vivo
Procedure: In order to confirm the efficacy of Usnic acid derivatives in relieving hypertrophic scars, the degree of scar relief by UA-CA treatment in hypertrophic scar samples was confirmed through histological comparison and pathological examination of skin tissue after biopsy.
A total of 4 rabbits weighing 3.5 kg (N2W conventional, female, 30 weeks old) were reared for a week in an environment of 21±1° C. 12-hour light/dark cycle, and the experiment was carried out. After anesthesia by intravenous administration of ketamine (60 mg/kg)+xylazine (5 mg/kg), both ears of the rabbit were sufficiently sterilized with betadine, and 5 wounds each with a diameter of 6 mm were made with a biopsy punch and a neck collar was applied. Management and supervision were made to become a hypertrophic scar model for 2 weeks after wound surgery. After confirming the hypertrophic scar model, the test material was treated twice a week for 2 weeks (untreated hypertrophic scar sample (Control), hypertrophic scar sample treated with 1, 5, and 10 mM UA-CA, 100 Thickening scar samples treated with ug/ml tranilast). After 2 weeks, visual evaluation and biopsy of the wound area were performed, followed by H&E staining, and then the changes in epidermal thickness were compared at 200 times and 400 times under a microscope.

With `C=C(OC(=O)/C=C/c1ccccc1)C1=C(OC(=O)/C=C/c2ccccc2)C=C2Oc3c(C(C)=O)c(O)c(C)c(O)c3[C@@]2(C)C1=O` [UA-CA] the “expression level of the TSLP gene (mRNA, relative to 36B4)” value (TSLP gene) was “dependently decreased”, the “expression level of the IL-1β gene (mRNA, relative to 36B4)” value (IL-1β gene) was “dependently decreased” and the “expression level of the IL-13 gene (mRNA, relative to 36B4)” value (IL-13 gene) was “dependently decreased”. The “expression level of the IL-25 gene (mRNA, relative to 36B4)” value (IL-25 gene) was “dependently decreased”, the “expression level of the IL-31 gene (mRNA, relative to 36B4)” value (IL-31 gene) was “dependently decreased” and the “scar relief compared with positive control tranilast” value (hypertrophic scar; 10 mM UA-CA vs 100 ug/ml tranilast, twice a week for 2 weeks) was “better scar relief efficacy”. For the same molecule, the “scar relief compared to the untreated hypertrophic scar” value (hypertrophic scar; UA-CA 1, 5, 10 mM, twice a week for 2 weeks, FIGS. 7A-7E) was “scar relief was more advanced” and the “thickness of the epidermis compared to the untreated thickening scar” value (hypertrophic scar; UA-CA-treated sample, H&E staining, FIGS. 8A-8E) was “became thinner”.
